These results are taken from patent US8975289B2, “Benzyl aralkyl ether compounds, method for preparing same, intermediate compounds, use of said compounds, method for treatment and/or prevention, pharmaceutical composition and medicament containing same” (priority 2009, dated 2015).

This test has as its system three different species of yeast and two distinct species of bacteria. As to the kind of experiment: Growth inhibition of the yeast and bacteria strains of Table 5, summary. It counts as cell-based. As to the method:
For the experiments of the present invention (i) yeast strains obtained from clinical isolates and laboratory isolates, and (ii) bacterial strains obtained from laboratory isolates were used, as described in Table 5 as follows.
The yeast strains were grown in culture medium Sabouraud Dextrose Agar maintained at a temperature of 35° C. for 48 hours.
The bacterial strains were grown in culture medium Triptic Soy Agar at 35° C. for two to six hours (or until the turbidity of a McFarland standard solution equal to 0.5). 5.2 Mounting of Preparations and Test For the experiments, compound 1-[2-(2,4-dichlorophenyl)-2-{[4-(trifluoromethyl)benzyl]oxy}ethyl]-1H-imidazole (BL-123) in the form of its nitrate salt, 1-[2-(2,4-dichlorophenyl)]-2-({4-[(2-phenyl)-2H-tetrazole]benzyl}oxy)ethyl]-1H-imidazole (BL-137), and miconazole nitrate were used. The compounds were dissolved in dimethyl sulfoxide (DMSO) to match the final concentration of the compound equal to or less than 1%.
The methodology used to test the sensitivity of the agent was broth microdilution according to the method described in Standard M27-A2 (Reference method for broth dilution tests to determine the sensitivity of yeasts to antifungal therapy-second edition, NCCLS, volume 22 number 15, USA, 2002) as follows.
The yeast strains were grown according to item 5.1.a to obtain a culture containing between 1×10^6 and 5×10^6 CFU/mL. […]

In the case of `FC(F)(F)c1ccc(COC(Cn2ccnc2)c2ccc(Cl)cc2Cl)cc1` (stereo not shown) [BL-123, 1-[2-(2,4-dichlorophenyl)-2-{[4-(trifluoromethyl)benzyl]oxy}ethyl]-1H-imidazole], the “Inhibitory effect on growth (in words)” value was “exert an inhibitory effect on the growth”.
